Data reported in the METLIN SMRT retention time set (Domingo-Almenara et al. 2019).

Test: gradient 5% acetonitrile 3 min, to 50% in 2 min, to 85% in 15 min, held 3 min, 100 µL/min
Conditions: column: Zorbax Extend-C18 2.1 x 50 mm; eluents: water / acetonitrile, 0.1% formic acid
Method in brief: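 Values are retention times taken from adduct peaks that software picked and an analyst inspected. The pure standards were run as mixtures of ~100 molecules on HPLC linked to a quadrupole time-of-flight mass spectrometer, in positive and negative ionization mode. A Zorbax Extend-C18 column (2.1 × 50 mm, 1.8 μm) was used at 100 μL/min with water and acetonitrile, each including 0.1% formic acid.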

| RP-LC retention time [s] | Compound |
| --- | --- |
| 998 | Cn1c(=O)c(N2CCCC(C(=O)NCc3cccc(Br)c3)C2)nc2ccccc21 (stereo not drawn) |
| 987 | O=C(NCc1nc(-c2ccc(Oc3ccc(Cl)cc3)cc2)no1)c1ccco1 |
| 640 | O=C(NCc1ccccc1C(F)(F)F)c1cn2c(n1)CCCC2 |
| 607 | COc1cc(C)c(C)cc1S(=O)(=O)Nc1cccc(-c2ccc(N3CCCC3)nn2)c1 |
| 793 | O=C(NC1CCCCC1)C1CCN(c2cnn(Cc3ccccc3)c(=O)c2)CC1 |
| 657 | CCCNC(=O)C1CCCN(c2ccc(SCC(=O)Nc3ccc(F)cc3F)nn2)C1 (stereo not drawn) |
| 804 | COc1cccc(NC(=O)Nc2cc3c(cc2Oc2ccccc2)n(C)c(=O)n3C)c1 |
| 702 | COc1ccc(-c2cn3c(CC(=O)Nc4ccccc4)csc3n2)cc1OC |
| 1230 | Cc1ccc(C(C)NC(=O)C2CCCN(c3nc4c(s3)c(C)nn4-c3ccc(F)cc3)C2)cc1 (stereo not drawn) |
| 709 | COc1cccc(N2CC(NC(=O)c3ccccc3C(F)(F)F)CC2=O)c1 (stereo not drawn) |
| 783 | O=C(Cc1ccc(F)cc1)Nc1ccc(-c2cn3c(C(=O)N4CCCC4)csc3n2)cc1 |
| 898 | O=C(Nc1ccc(OCc2nnc(-c3ccccc3)o2)cc1)c1ccc(Cl)nc1 |
| 1080 | Cc1ccc(Cn2nc3c(S(=O)(=O)N4CCN(c5ccc(F)cc5)CC4)cccn3c2=O)c(C)c1 |
| 628 | CCOC(=O)N1CCN(c2cc(C(=O)O)c3cc(NC(=O)c4ccccc4F)ccc3n2)CC1 |
| 1230 | CCOc1nc2ccccc2nc1N1CCCC(C(=O)Nc2cccc3ccccc23)C1 (stereo not drawn) |
| 984 | O=C(CCc1c[nH]c2ccccc12)N1CCc2cc(-c3ccno3)ccc21 |
| 631 | CC(C)n1cnc2cc(CNC(=O)CCc3ccccc3)ccc21 |
| 835 | COCc1nc(-c2ccc(OC3CCN(C(=O)c4n[nH]c5ccccc45)C3)cc2)no1 (stereo not drawn) |

| RP-LC retention time [s] | Compound |
| --- | --- |
| 839 | CCOc1ccc(NC(=O)CN2C(=O)c3ccccc3C2=O)c([N+](=O)[O-])c1 |
| 967 | O=C(c1ccc2c(c1)CCC(=O)N2Cc1ccccc1)N1CCN(c2ccccc2F)CC1 |
| 758 | O=C(NCCc1ccccc1)C1CCCN(c2ncnc3c2nc2n3CCCCC2)C1 (stereo not drawn) |
| 950 | CC(=O)N1c2ccc(S(=O)(=O)N3CCCCCC3)cc2CC1C(=O)NCc1ccccc1Cl (stereo not drawn) |
| 662 | Cc1cc(=O)n(CC(=O)NCc2ccccc2Cl)c(N2CCOCC2)n1 |
| 1100 | O=C(Cc1ccc(Br)cc1)Nc1nc(-c2ccccc2)cs1 |
| 610 | O=C(NCCc1c[nH]c2ccccc12)C1CCN(c2ccncc2)CC1 |
| 721 | Fc1cccc(N2CC3(CCNCC3)C2c2ccccc2)c1 (stereo not drawn) |
| 861 | CSc1ccc(CNC(=O)Cn2c(=O)c3cccn3c3ccc(F)cc32)cc1 |
| 1100 | CC(C)c1ccc(N2C(=O)C3N=NN(Cc4nc(-c5ccccc5Cl)no4)C3C2=O)cc1 (stereo not drawn) |
| 628 | CCCN1CCN(c2cc(C(=O)O)c3cc(NC(=O)c4ccc(Br)cc4)ccc3n2)CC1 |
| 614 | COc1ccc(NC(=O)CSc2nnc(CNC(=O)c3cccs3)o2)c(OC)c1 |
| 565 | CCCN1CCN(c2ncc3c(n2)CCN(Cc2cccc(Br)c2)C3)CC1 |
| 788 | COc1cccc(N2CCN(c3ccnc(SCC(=O)NCc4ccccc4Cl)n3)CC2)c1 |
| 790 | Cc1ccnc(Nc2nc(-c3ccccc3)cs2)c1 |
| 809 | O=C(CN1CCN(Cc2ccc(F)cc2)C1=O)NCc1ccc(F)cc1F |
| 703 | COc1ccc(C(=O)N2CC(C(=O)NC3CC3)C(c3ccc(OC)cc3OC)C2)cc1 (stereo not drawn) |

The remaining lines, values behind:

| Compound | RP-LC retention time [s] |
| --- | --- |
| Cc1cc(C)c(NS(=O)(=O)c2cc(-c3nc(C)c(C)s3)sc2C)c(C)c1 | 1260 |
| CN1CCN(C(=O)C2CCN(S(=O)(=O)c3cc4c(cc3Cl)NC(=O)CO4)CC2)CC1 | 580 |
| O=c1ccc(-c2ccc3c(c2)OCO3)nn1CCc1nc(-c2ccc3c(c2)OCO3)no1 | 893 |
| O=C(NCc1ccc(F)cc1)c1ccc(-c2ccsc2)nc1 | 854 |
| Cc1nnc2ccc(N3CCOCC3)nn12 | 600 |
| COc1ccc(C(=O)N2CCC3(CC2)NC(=O)c2cc(F)ccc2N3C)cc1OC | 715 |
| COC(=O)c1cnc2nc(C)ccc2c1Nc1ccc(Cl)cc1C | 721 |
| Cc1ccccc1Cc1noc(-c2nc(-c3ccccc3F)no2)n1 | 1180 |
| COc1cc(NC(=O)N(C)Cc2nc3cc(C(=O)N(C)C)ccc3n2C)cc(OC)c1 | 610 |
| Cn1c(=O)c2c(-c3ccncc3)c(C#N)c(N)nc2n(C)c1=O | 554 |
| CCCSCCCNC(=O)Cn1cnc2nc3c(cc2c1=O)CCCC3 | 739 |
| O=C(NCc1ccc2c(c1)OCO2)C1CCCN(S(=O)(=O)c2c[nH]c(C(=O)N3CCCC3)c2)C1 (stereo not drawn) | 738 |
| O=S(=O)(Nc1ccc2c(c1)OCO2)c1ccc2ccccc2c1 | 953 |
| Cc1ccccc1C(=O)Nc1ccc(C(=O)N2CCCC(N(C)C)c3ccccc32)cc1 (stereo not drawn) | 712 |
| Cc1cn(C)c(CC(=O)NCCCN2CCN(C)CC2)c1C(=O)O | 561 |
| Cc1ccc2c(c1)N(Cc1cc(F)cc(F)c1)N=C(C(=O)N1CCCC1)S2(=O)=O | 900 |
| COc1ccc(-c2nnc(Cc3nc(-c4ccc5c(c4)OCO5)no3)o2)cc1OC | 940 |
| COCCN1CC(CO)C2(CCN(Cc3ccc(Cl)c(F)c3)CC2)C1 (stereo not drawn) | 555 |
| CC(C)(C)OC(=O)Nc1cnc(C(=O)O)cn1 | 625 |
| COc1c(C(=O)NC(C)C)sc2ccc(Cl)cc12 | 1060 |
| Cc1ccc(C)c(NC(=O)C2CCCN(S(=O)(=O)c3cn(C(C)C)cn3)C2)c1 (stereo not drawn) | 781 |
| Cc1ccc(CN2CCC(CNC(=O)C3CCCN(c4cc(=O)n(C)c(=O)n4C)C3)CC2)cc1 (stereo not drawn) | 602 |
| Cc1ccc2c(Nc3ccc4c(c3)OCO4)c(-c3nc(C4CC4)no3)cnc2n1 | 736 |
| Cn1nc(N2CCC(NC(=O)Cc3cccs3)C2)ccc1=O (stereo not drawn) | 627 |
| CCc1sc(N)nc1-c1ccc(OC)cc1 | 668 |
| Cc1ccnc(NS(=O)(=O)c2ccc(NC(=O)c3nc(-c4cnccn4)no3)cc2)n1 | 608 |
| CNC(=O)[C@@H]1CN(S(=O)(=O)c2cnc[nH]2)C[C@H]1c1nc(C)no1 | 568 |

| Compound | RP-LC retention time [s] |
| --- | --- |
| CCCNC(=O)NCCC1CCN(S(=O)(=O)c2ccccc2)CC1 | 753 |
| CC(=O)Nc1nc(C)c(-c2ccc(Cl)c(S(=O)(=O)NCCO)c2)s1 | 685 |
| Cc1ccc(Cn2cccc(S(=O)(=O)N3CCCC3)c2=O)cc1 | 859 |
| O=C(Nc1cccc(Br)c1)c1cccn1Cc1noc(C2CC2)n1 | 1040 |
| CCc1nc(-c2csc(S(=O)(=O)N3CCC(C(=O)Nc4cccc(F)c4)CC3)c2)no1 | 1010 |
| Cc1cccc(OCc2nc(-c3ccc4ncn(C(C)C)c4c3)no2)c1 | 839 |
| CCc1noc(NC(C)=O)c1-c1ccc(OC)c(S(=O)(=O)N2CCCc3ccccc32)c1 | 879 |
| O=C(CSCc1ccccc1)Nc1nnc(-c2ccsc2)o1 | 757 |
| COCCN(Cc1ccncc1)C(=O)c1ccc2nsnc2c1 | 544 |
| CCCN1C(=O)COc2ccc(-c3noc(Cc4ccc(OC)c(OC)c4)n3)cc21 | 993 |
| CN(C(=O)Cn1cnc2c(-c3ccccc3)csc2c1=O)c1ccccc1 | 911 |
| Cc1cccc(Cn2c(=O)n(CCNC(=O)C3CCCO3)c3ncccc32)c1 (stereo not drawn) | 715 |
| Cc1ccc(C)c(NC(=O)c2cn(-c3ncccc3-c3nc(C(C)C)no3)cn2)c1 | 1010 |
| CCn1cnc(S(=O)(=O)N2CCCC(C(=O)Nc3cccc(Cl)c3)C2)c1 (stereo not drawn) | 797 |
| O=C(Nc1ccc(Cl)cc1)C1CCc2nc(N3CCOCC3)ncc2C1 (stereo not drawn) | 757 |
| Cc1ccc(C(=O)N2CCCCCCNC(=O)[C@@H]3CCCC[C@@H]32)s1 | 813 |
| Cc1cccc(NC(=O)C2CCCN(S(=O)(=O)c3c[nH]c(C(=O)N4CCCCCC4)c3)C2)c1 (stereo not drawn) | 922 |
| O=C(CCc1c[nH]c2ccccc12)N1CCCN(C2CCN(CC3CC3)C2=O)CC1 (stereo not drawn) | 570 |
| CC(C)n1c(=O)sc2cc(S(=O)(=O)N3CCC(C(=O)NCc4cccs4)CC3)ccc21 | 885 |
| CCCC(=O)N1C[C@@H]2CCCN3CCC[C@@H]([C@H]23)[C@H]1CCCC(=O)NCC1CC1 | 587 |
| CCN1CCN(CCNC(=O)c2c(-c3ccc(Br)s3)noc2C)CC1 | 618 |
| COc1cc(OC)cc(N2C(=O)C3N=NN(Cc4nc(-c5cccc(Cl)c5)no4)C3C2=O)c1 (stereo not drawn) | 1020 |
| O=C(NC1CCCC1)c1cccc2c1CCN2C(=O)c1ccc(F)cc1 | 862 |
| Cc1noc(C)c1CN1CCN(C(=O)Cc2ccccc2Cl)CC1 | 563 |
| O=c1c2nc(-c3cccc(Cl)c3)cn2ccn1-c1cccc(F)c1 | 871 |
| CC1(C)C(=O)NCCN1C(=O)c1cccc(Br)c1 | 649 |
